ChEMBL document CHEMBL1208720, “N-Benzylsalicylthioamides as novel compounds with promising antimycotic activity” (2010)
Values after ≈ are worked out from the molar mass of the structure shown.

Columns and labels:
Type in all cases: functional
Trichosporon asahii [1] = assay: Antifungal activity against Trichosporon asahii 1188 after 48 hrs by broth microdilution assay; conditions: Trichosporon asahii, 1188, 48 h
[2] = system: Trichophyton mentagrophytes; assay: Antifungal activity against Trichophyton mentagrophytes 445 after 120 hrs by broth microdilution assay; conditions: Trichophyton mentagrophytes, 445, 120 h
Lichtheimia corymbifera [3] = assay: Antifungal activity against Absidia corymbifera 272 after 48 hrs by broth microdilution assay; conditions: Lichtheimia corymbifera, 272, 48 h
Candida tropicalis [4] = assay: Antifungal activity against Candida tropicalis 159 after 24 hrs by broth microdilution assay; conditions: Candida tropicalis, 159, 24 h
Pichia kudriavzevii [5] = assay: Antifungal activity against Candida krusei E28 after 48 hrs by broth microdilution assay; conditions: Pichia kudriavzevii, E28, 48 h
Candida albicans [6] = assay: Antifungal activity against Candida albicans ATCC 44859 after 48 hrs by broth microdilution assay; conditions: Candida albicans, ATCC 44859, 48 h
Pichia kudriavzevii [7] = assay: Antifungal activity against Candida krusei E28 after 24 hrs by broth microdilution assay; conditions: Pichia kudriavzevii, E28, 24 h
Nakaseomyces glabratus [8] = assay: Antifungal activity against Candida glabrata 20/I after 24 hrs by broth microdilution assay; conditions: Nakaseomyces glabratus, 20/I, 24 h
[9] = system: Trichophyton mentagrophytes; assay: Antifungal activity against Trichophyton mentagrophytes 445 after 72 hrs by broth microdilution assay; conditions: Trichophyton mentagrophytes, 445, 72 h
Candida tropicalis [10] = assay: Antifungal activity against Candida tropicalis 159 after 48 hrs by broth microdilution assay; conditions: Candida tropicalis, 159, 48 h
Aspergillus fumigatus [11] = assay: Antifungal activity against Aspergillus fumigatus 231 after 48 hrs by broth microdilution assay; conditions: Aspergillus fumigatus, 231, 48 h
Nakaseomyces glabratus [12] = assay: Antifungal activity against Candida glabrata 20/I after 48 hrs by broth microdilution assay; conditions: Nakaseomyces glabratus, 20/I, 48 h
Aspergillus fumigatus [13] = assay: Antifungal activity against Aspergillus fumigatus 231 after 24 hrs by broth microdilution assay; conditions: Aspergillus fumigatus, 231, 24 h
Trichosporon asahii [14] = assay: Antifungal activity against Trichosporon asahii 1188 after 24 hrs by broth microdilution assay; conditions: Trichosporon asahii, 1188, 24 h
Lichtheimia corymbifera [15] = assay: Antifungal activity against Absidia corymbifera 272 after 24 hrs by broth microdilution assay; conditions: Lichtheimia corymbifera, 272, 24 h
Candida albicans [16] = assay: Antifungal activity against Candida albicans ATCC 44859 after 24 hrs by broth microdilution assay; conditions: Candida albicans, ATCC 44859, 24 h

Structure (SMILES) | MIC (Trichosporon asahii [1]) [µM] | MIC [2] [µM] | MIC (Lichtheimia corymbifera [3]) [µM] | MIC (Candida tropicalis [4]) [µM] | MIC (Pichia kudriavzevii [5]) [µM] | MIC (Candida albicans [6]) [µM] | MIC (Pichia kudriavzevii [7]) [µM] | MIC (Nakaseomyces glabratus [8]) [µM] | MIC [9] [µM] | MIC (Candida tropicalis [10]) [µM] | MIC (Aspergillus fumigatus [11]) [µM] | MIC (Nakaseomyces glabratus [12]) [µM] | MIC (Aspergillus fumigatus [13]) [µM] | MIC (Trichosporon asahii [14]) [µM] | MIC (Lichtheimia corymbifera [15]) [µM] | MIC (Candida albicans [16]) [µM]
Oc1ccc(Br)cc1C(=S)NCc1ccc(Cl)c(Cl)c1 | 7.81 (≈ 3.05 µg/mL) | 0.98 (≈ 0.383 µg/mL) | 3.9 (≈ 1.53 µg/mL) | 31.2 (≈ 12.2 µg/mL) | 15.6 (≈ 6.11 µg/mL) | 31.2 (≈ 12.2 µg/mL) | 7.81 (≈ 3.05 µg/mL) | 31.2 (≈ 12.2 µg/mL) | 0.98 (≈ 0.383 µg/mL) | 31.2 (≈ 12.2 µg/mL) | 7.81 (≈ 3.05 µg/mL) | 62.5 (≈ 24.4 µg/mL) | 7.81 (≈ 3.05 µg/mL) | 3.9 (≈ 1.53 µg/mL) | 3.9 (≈ 1.53 µg/mL) | 15.6 (≈ 6.11 µg/mL)
COc1ccc(C(=S)NCc2ccccc2)c(O)c1 | 250 (≈ 68.3 µg/mL) | 62.5 (≈ 17.1 µg/mL) | 250 (≈ 68.3 µg/mL) | 250 (≈ 68.3 µg/mL) | 250 (≈ 68.3 µg/mL) | 250 (≈ 68.3 µg/mL) | 250 (≈ 68.3 µg/mL) | 500 (≈ 137 µg/mL) | 62.5 (≈ 17.1 µg/mL) | 250 (≈ 68.3 µg/mL) | 500 (≈ 137 µg/mL) | 500 (≈ 137 µg/mL) | 250 (≈ 68.3 µg/mL) | 250 (≈ 68.3 µg/mL) | 62.5 (≈ 17.1 µg/mL) | 62.5 (≈ 17.1 µg/mL)
Cc1ccc(C(=S)NCc2ccccc2)c(O)c1 | 62.5 (≈ 16.1 µg/mL) | 31.2 (≈ 8.04 µg/mL) | 31.2 (≈ 8.04 µg/mL) | 125 (≈ 32.2 µg/mL) | 125 (≈ 32.2 µg/mL) | 125 (≈ 32.2 µg/mL) | 62.5 (≈ 16.1 µg/mL) | 125 (≈ 32.2 µg/mL) | 31.2 (≈ 8.04 µg/mL) | 250 (≈ 64.3 µg/mL) | 125 (≈ 32.2 µg/mL) | 250 (≈ 64.3 µg/mL) | 62.5 (≈ 16.1 µg/mL) | 62.5 (≈ 16.1 µg/mL) | 7.81 (≈ 2.01 µg/mL) | 62.5 (≈ 16.1 µg/mL)
COc1ccc(C(=S)NCc2cccc(Cl)c2)c(O)c1 | 62.5 (≈ 19.2 µg/mL) | 15.6 (≈ 4.81 µg/mL) | 7.81 (≈ 2.4 µg/mL) | 125 (≈ 38.5 µg/mL) | 125 (≈ 38.5 µg/mL) | 250 (≈ 77 µg/mL) | 125 (≈ 38.5 µg/mL) | 250 (≈ 77 µg/mL) | 15.6 (≈ 4.81 µg/mL) | 250 (≈ 77 µg/mL) | 125 (≈ 38.5 µg/mL) | 500 (≈ 154 µg/mL) | 62.5 (≈ 19.2 µg/mL) | 31.2 (≈ 9.62 µg/mL) | 7.81 (≈ 2.4 µg/mL) | 125 (≈ 38.5 µg/mL)
Oc1ccccc1C(=S)NCc1ccc(F)cc1 | 62.5 (≈ 16.3 µg/mL) | 31.2 (≈ 8.17 µg/mL) | 31.2 (≈ 8.17 µg/mL) | 125 (≈ 32.7 µg/mL) | 125 (≈ 32.7 µg/mL) | 125 (≈ 32.7 µg/mL) | 62.5 (≈ 16.3 µg/mL) | 125 (≈ 32.7 µg/mL) | 7.81 (≈ 2.04 µg/mL) | 250 (≈ 65.3 µg/mL) | 62.5 (≈ 16.3 µg/mL) | 250 (≈ 65.3 µg/mL) | 62.5 (≈ 16.3 µg/mL) | 31.2 (≈ 8.17 µg/mL) | 15.6 (≈ 4.08 µg/mL) | 62.5 (≈ 16.3 µg/mL)
Oc1ccccc1C(=S)NCc1cccc(Cl)c1 | 31.2 (≈ 8.68 µg/mL) | 15.6 (≈ 4.34 µg/mL) | 31.2 (≈ 8.68 µg/mL) | 125 (≈ 34.7 µg/mL) | 125 (≈ 34.7 µg/mL) | 125 (≈ 34.7 µg/mL) | 62.5 (≈ 17.4 µg/mL) | 125 (≈ 34.7 µg/mL) | 7.81 (≈ 2.17 µg/mL) | 125 (≈ 34.7 µg/mL) | 62.5 (≈ 17.4 µg/mL) | 250 (≈ 69.4 µg/mL) | 62.5 (≈ 17.4 µg/mL) | 31.2 (≈ 8.68 µg/mL) | 31.2 (≈ 8.68 µg/mL) | 125 (≈ 34.7 µg/mL)
Cc1cccc(C(=S)NCc2ccc(Cl)cc2)c1O | 62.5 (≈ 18.2 µg/mL) | 15.6 (≈ 4.56 µg/mL) | 31.2 (≈ 9.12 µg/mL) | 125 (≈ 36.5 µg/mL) | > 500 | 125 (≈ 36.5 µg/mL) | > 500 | > 500 | 15.6 (≈ 4.56 µg/mL) | 250 (≈ 73 µg/mL) | 125 (≈ 36.5 µg/mL) | > 500 | 62.5 (≈ 18.2 µg/mL) | 62.5 (≈ 18.2 µg/mL) | 31.2 (≈ 9.12 µg/mL) | 62.5 (≈ 18.2 µg/mL)
Cc1ccc(C(=S)NCc2ccc(C(C)(C)C)cc2)c(O)c1 | > 500 | > 500 | > 500 | > 500 | > 500 | > 500 | > 500 | > 500 | > 500 | > 500 | > 500 | > 500 | > 500 | > 500 | > 500 | > 500
Cc1ccc(CNC(=S)c2ccccc2O)cc1 | 62.5 (≈ 16.1 µg/mL) | 15.6 (≈ 4.02 µg/mL) | 31.2 (≈ 8.04 µg/mL) | 125 (≈ 32.2 µg/mL) | 125 (≈ 32.2 µg/mL) | 125 (≈ 32.2 µg/mL) | 62.5 (≈ 16.1 µg/mL) | 125 (≈ 32.2 µg/mL) | 31.2 (≈ 8.04 µg/mL) | 125 (≈ 32.2 µg/mL) | 250 (≈ 64.3 µg/mL) | 125 (≈ 32.2 µg/mL) | 125 (≈ 32.2 µg/mL) | 31.2 (≈ 8.04 µg/mL) | 15.6 (≈ 4.02 µg/mL) | 62.5 (≈ 16.1 µg/mL)
Oc1ccccc1C(=S)NCc1ccc(Cl)c(Cl)c1 | 15.6 (≈ 4.88 µg/mL) | 15.6 (≈ 4.88 µg/mL) | 15.6 (≈ 4.88 µg/mL) | 31.2 (≈ 9.76 µg/mL) | 31.2 (≈ 9.76 µg/mL) | 31.2 (≈ 9.76 µg/mL) | 15.6 (≈ 4.88 µg/mL) | 31.2 (≈ 9.76 µg/mL) | 7.81 (≈ 2.44 µg/mL) | 31.2 (≈ 9.76 µg/mL) | 31.2 (≈ 9.76 µg/mL) | 31.2 (≈ 9.76 µg/mL) | 15.6 (≈ 4.88 µg/mL) | 15.6 (≈ 4.88 µg/mL) | 7.81 (≈ 2.44 µg/mL) | 15.6 (≈ 4.88 µg/mL)
